# Assay results as given in patent publication EP0170121A1, “2-Hydroxy-3-aryloxypropyl or 2-hydroxy-2-benzofuranyl ethyl tertiary amine having an anti-hyperglycaemic and/or anti-obesity activity” (BEECHAM GROUP PLC, priority 1984, dated 1986).
# Where a name gives a salt, the structure may show the parent alone.
# Legend:
# Female CFLP mice = test: Hypoglycaemic activity: subcutaneous glucose load, area under blood glucose curve; format: in vivo; conditions: female CFLP mice fasted 24 hours; compound orally 30 minutes before glucose 1 g/kg s.c.; 2 hour period; versus control mice given water; dose differs per compound (Dose µmol/kg)
# Description: Female CFLP mice, weighing approximately 25 g, were fasted for 24 hours prior to the study. The compounds under study were administered orally as an aqueous solution to each of 6 mice. 30 minutes later a blood sample (20 µl) was obtained from the tail for the analysis of blood glucose. Immediately after taking this blood sample, glucose (1 g/kg body weight) was administered subcutaneously to each mouse. 6 mice were given water as a control. Blood samples were then obtained from each mouse at 30 minute intervals for 120 minutes.
# Compounds that produced a significant (p<0.05) reduction of blood glucose, compared with control mice given water, at any time interval, were considered active. The area under the blood glucose curve over the 2 hour period after the administration of the glucose was calculated for each compound and compared with the value for control animals.
# Male Sprague-Dawley rats = test: Effect on energy expenditure of rats (oxygen consumption, oral dosing); format: in vivo; conditions: deprived of food, p.o. in water, percentage of the rate of energy expenditure of the rats dosed with water, dose differs per compound (Dose mg/kg p.o.); for Mean Energy Expenditure (0-3h): 0-3h after dosing; for Mean Energy Expenditure (0-21h): 0-21h after dosing
# Description: Male Sprague-Dawley rats each weighing between 170-200 g were deprived of food for 16 hours before, and during the experiment. Water was provided ad lib at all times. The compounds were administered orally in water to 3 or 4 rats. A further 4 rats were dosed orally with water. The rats were placed in boxes through which air was drawn and the oxygen content of the air leaving the boxes was measured. The energy expenditure of the rats was calculated for 3 hours and for 21 hours after dosing from the volume of air leaving the boxes and its oxygen content, following the principles described by J.B. de V. Weir, J. Physiol. (London) 109, 1-9 (1949). The results are expressed as a percentage of the rate of energy expenditure of the rats dosed with water.
# Isolated Rat Atria = test: Effect of compounds on isolated rat atria (rate of right atrium, tension of left atrium); format: cell-based, Sprague-Dawley male rats; conditions: Krebs solution 32°C, up to 3x10-^5M; for effect on tension (electrically paced left atrium): isolated rat left atrium; for effect on rate (spontaneously beating right atrium): isolated rat right atrium
# Description: Sprague-Dawley male rats (300-400 g) are killed and the right and left atria dissected out independently and mounted on a combined tissue holder/electrode. The tissues are then immersed in a glass bath containing Krebs solution maintained at 32 °C. The rate of the spontaneously beating right atrium (via an isometric tranducer and a ratemeter) and the tension of the electrically paced left atrium (via an isometric transducer) are recorded on an M19 chart recorder.
# After an initial stabilization period, the tissues are exposed to a maximal concentration of isoprenaline (10^-6M). The tissues are then washed several times until rate and tension return to baseline level. A dose-response curve to the test compound is then carried out.
# Female CD1 mice = test: Effect on energy expenditure of mice (oxygen consumption, oral dosing); format: in vivo; conditions: p.o. in water, percentage of the rate of energy expenditure of the mice dosed with water, dose differs per compound (Dose mg/kg p.o.); for Mean Energy Expenditure (0-3h): 0-3h after dosing; for Mean Energy Expenditure (0-21h): 0-21h after dosing
# Description: Female CD1 mice each weighing approximately 24 g were given food and water ad lib before and during the experiment. The compounds were dissolved in water and these solutions were administered orally to each of 12 mice. A further 12 mice were dosed orally with water. The mice were placed in groups of threes in boxes through which air was drawn and the oxygen content of the air leaving the boxes was measured. The energy expenditure of the mice was calculated for 3 and 21 hours after dosing from the volume of air leaving the boxes and its oxygen content, following the principles described by J.B. de V. Weir, J. Physiol. (London) 109, 1-9 (1949). The results are expressed as a percentage of the rate of energy expenditure of the mice dosed with water.
# Female BALB/c mice = test: Anti-obesity activity: weight of parametrial fat pads after 3 days of compound in the diet; format: in vivo; conditions: compound in diet for 3 days, dose differs per compound (Dose mg/kg diet), mean of 9 values
# Description: Female BALB/c mice were trained to feed on powdered oxoid for 1 week. They were then housed in threes and the compound under study was added to the diet for 3 days. Food was removed at 09.00h and the mice were killed at 11.00h. The parametrial fat pads were weighed as pairs. The result is a mean of 9 values.
SMILES,% Reduction in Area under Blood Glucose Curve (Female CFLP mice) [%],Mean Energy Expenditure (0-3h) (Male Sprague-Dawley rats) [percentage],Mean Energy Expenditure (0-21h) (Male Sprague-Dawley rats) [percentage],effect on tension (electrically paced left atrium) (Isolated Rat Atria),effect on rate (spontaneously beating right atrium) (Isolated Rat Atria),Mean Energy Expenditure (0-3h) (Female CD1 mice) [percentage],Mean Energy Expenditure (0-21h) (Female CD1 mice) [percentage],Percentage reduction in weight of parametrial fat pads compared with controls (Female BALB/c mice) [Percentage]
"C[C@H](Cc1ccc(OCC(N)=O)cc1)N(C[C@H](O)COc1ccccc1)C[C@H](O)COc1ccccc1 [Example 14, 4-[(R)-2-[Bis-[(S)-2-hydroxy-3-phenoxypropyl]amino]propyl] phenoxyacetamide, hydrochloride]",20,127,117,no effect,no effect,140,112,
"C[C@H](Cc1ccc(OCCN)cc1)N(C[C@H](O)COc1ccccc1)C[C@H](O)c1ccccc1 [Example 20, 4-[(R)-2-[N-[(R)-2-Hydroxy-2-phenethyl]-N-[(S)-2-hydrpxy-3-phenoxypropyl]amino]propyl]phenoxyethylamine, dihydrochloride, hydrate]",40,112,110,,,146,120,15
"CNC(=O)c1ccc(C[C@@H](C)N(C[C@H](O)COc2ccccc2)C[C@H](O)COc2ccccc2)cc1 [Example 3, N-Methyl 4-[(R)-2-[bis-[(S)-2-hydrpxy-3-phenoxypropyl]amino]propyl]benzamide, fumarate]",12,114,100,,,133,109,
"C[C@H](CCc1ccc(C(N)=O)cc1)N(C[C@H](O)COc1ccccc1)C[C@H](O)c1ccccc1 [Example 12, 4-[(R)-3-[N-(R)-2-Hydroxy-2-phenethyl-N-[(S)-2-hydroxy-3-phenoxypropyl]amino]butyl]benzamide]",28,139,113,,,111,103,
"CCOC(=O)COc1ccc(C[C@@H](C)N(C[C@H](O)COc2ccccc2)C[C@H](O)COc2ccccc2)cc1 [Example 17, Ethyl 4-[(R)-2-[bis-[(S)-2-hydroxy-3-phenoxypropyl]amino]propyl]phenoxyacetate, hydrochloride, hemihydrate]",,120,105,,,,,37
"COC(=O)c1ccc(CC(C)N(CC(O)COc2ccccc2)CC(O)c2ccc(O)c(CO)c2)cc1 (stereo not drawn) [Example 9, Methyl 4-[2-[N-[2-hydroxy-2-[4-hydroxy-3-hydroxymethylphenyl]ethyl]-N-[2-hydroxy-3-phenoxypropyl]amino]propyl] benzoate]",34,,,,,111,106,13
"COC(=O)c1ccc(C[C@@H](C)N(C[C@H](O)COc2ccccc2)C[C@H](O)COc2ccccc2)cc1 [Example 1, Methyl 4-[(R)-2-[bis-[(S)-2-hydroxy-3-phenoxypropyl]amino]propyl]benzoate]",28,115,114,no effect,no effect,132,107,
"CNC(=O)c1ccc(C[C@@H](C)N(C[C@H](O)COc2ccccc2)C[C@H](O)c2ccccc2)cc1 [Example 6, N-Methyl 4-[(R)-2-[N'-[(R)-2-hydroxy-2-phenethyl]-N'-[(S)-2-hydroxy-3-phenoxypropyl]amino]propyl]benzamide]",13,112,108,,,126,110,
"CCOC(=O)COc1ccc(C[C@@H](C)N(C[C@H](O)COc2ccccc2)C[C@H](O)c2cccc(Cl)c2)cc1 [Example 18, Ethyl 4-[(R)-2-[N-[(R)-2-(3-chlorophenyl)-2-hydroxyethyl]-N-[(S)-2-hydroxy-3-phenoxypropyl]amino]propyl]phenoxyacetate, hemifumarate]",45,126,109,,,,,21
"CCOC(=O)COc1ccc(C[C@@H](C)N(C[C@@H](O)COc2ccccc2)C[C@H](O)c2ccccc2)cc1 [Example 23, Ethyl 4-[(R)-2-[N-[(R-2-hydroxy-2-phenethyl]-N-[(R)-2-hydroxy-3-phenoxypropyl]amino]propyl]phenoxyacetate, hydrochloride]",,129,111,,,,,31
"C[C@H](Cc1ccc(OCC(N)=O)cc1)N(C[C@H](O)COc1ccccc1)C[C@H](O)c1ccccc1 [Example 16, 4-[(R)-2-[N-[(R)-2-Hydroxy-2-phenethyl]-N-[(S)-2-hydroxy-3-phenoxypropyl]amino]propyl]phenoxyacetamide, hydrochloride, hemihydrate]",,141,119,,,151,113,27
"COC(=O)COc1ccc(CC(C)N(CC(O)COc2ccc(CC(N)=O)cc2)CC(O)c2cccc(Cl)c2)cc1 (stereo not drawn) [Example 11, Methyl 4-[2-[N-[2-(3-chlorophenyl)-2-hydroxyethyl]-N-[2-hydroxy-3-(4-carboxamidomethyl)phenoxypropyl]amino]propyl] phenoxyacetate, hydrochloride]",57,136,111,,,120,112,16
